Assay results: article PMC11174489, “In Vitro Activation of Human Adrenergic Receptors and Trace Amine-Associated Receptor 1 by Phenethylamine Analogues Present in Food Supplements” (Nutrients, 2024)
Where two headings read alike, the source gives them in different places.

How the values were obtained:
[1] = target: T1, human adrenergic receptor (ADR) α2A (Homo sapiens, UniProt P08913); assay: ADRα2A activation, Ca2+ influx (Fluo-8) in overexpressing chem-1 cells; assay type: cell-based; conditions: for EC50: Ca2+ response, chem-1 cells, average (95% confidence interval), 7–9 experiments; for potency at ADRα2A, times lower compared to adrenaline: relative to the endogenous agonist adrenaline
T1 construct: host or cells: rat chem-1 cells
T1 sequence (P08913 1-465): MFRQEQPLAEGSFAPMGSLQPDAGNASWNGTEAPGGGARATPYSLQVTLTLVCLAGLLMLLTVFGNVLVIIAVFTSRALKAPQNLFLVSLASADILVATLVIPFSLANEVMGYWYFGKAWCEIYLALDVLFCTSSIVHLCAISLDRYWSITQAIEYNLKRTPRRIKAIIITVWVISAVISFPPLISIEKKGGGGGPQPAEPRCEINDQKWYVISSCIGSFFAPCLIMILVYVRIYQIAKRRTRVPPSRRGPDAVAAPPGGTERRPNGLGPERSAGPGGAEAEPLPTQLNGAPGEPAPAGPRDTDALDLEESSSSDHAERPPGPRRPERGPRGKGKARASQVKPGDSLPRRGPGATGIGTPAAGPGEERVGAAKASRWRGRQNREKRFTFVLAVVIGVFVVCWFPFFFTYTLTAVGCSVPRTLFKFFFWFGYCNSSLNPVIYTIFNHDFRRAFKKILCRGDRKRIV

[2] = target: T2, human adrenergic receptor (ADR) α1B (Homo sapiens, UniProt P35368); assay: ADRα1B activation, Ca2+ influx (Fluo-8) in overexpressing chem-1 cells; assay type: cell-based; conditions: for ADRα1B Emax: % of maximal signal obtained by adrenaline, average (95% CI); for Emax: Chem-1, read-out: ADRα1B Emax
T2 construct: host or cells: rat chem-1 cells
T2 sequence (P35368 1-520): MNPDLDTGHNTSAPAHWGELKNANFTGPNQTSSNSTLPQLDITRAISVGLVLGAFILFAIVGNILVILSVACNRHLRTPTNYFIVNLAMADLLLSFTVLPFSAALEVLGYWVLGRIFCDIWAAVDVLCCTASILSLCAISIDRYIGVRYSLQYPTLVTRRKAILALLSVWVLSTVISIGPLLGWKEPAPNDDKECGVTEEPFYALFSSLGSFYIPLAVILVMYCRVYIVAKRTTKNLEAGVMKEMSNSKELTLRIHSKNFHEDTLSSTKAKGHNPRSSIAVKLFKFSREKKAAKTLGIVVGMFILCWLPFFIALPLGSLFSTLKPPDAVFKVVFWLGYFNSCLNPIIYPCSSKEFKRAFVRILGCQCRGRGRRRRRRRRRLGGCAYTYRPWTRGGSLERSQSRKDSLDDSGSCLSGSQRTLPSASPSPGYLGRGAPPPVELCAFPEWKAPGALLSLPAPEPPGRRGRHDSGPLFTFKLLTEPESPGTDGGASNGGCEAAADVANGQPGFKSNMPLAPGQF
Description: (§1) Cells overexpressing human ADRs α1A, α1B, α1D, α2A, α2B, β1 and β2 (Eurofins Discovery Services, St. Charles, MO, USA, product numbers: HTS087RTA, HTS158RTA, HTS216RTA, HTS096RTA, HTS157LRTA, HTS104RTA and HTS073RTA, respectively) were used to study the potency (EC50) and efficacy (Emax) of the selected compounds for these receptors by quantifying Ca^2+ influx upon receptor activation. ADRα1A, α1B, α1D, α2A, β1 and β2 were overexpressed in rat chem-1 cells. ADRα2B was overexpressed in HEK293 cells. The cells were seeded (10,000–50,000 cells/well) in a black 96-well plate (VWR International, Leuven, Belgium) and incubated at 37 °C and 5% CO2 for 24 h. After 24 h, the cells were washed with Hank’s balanced salt solution (HBSS) (Gibco, Paisley, UK) containing 0.35 g/L sodium bicarbonate and incubated with 5 µg/mL Fluo-8 AM in HBSS (pH 7.4) supplemented with 2.5 mM probenecid for 1 h. […] Peak tops of the obtained fluorescence response–time curves were corrected for baseline fluorescence and used to construct concentration–response relationships.
(§2) Concentration–response relationships for TAAR1 activation are presented as percentages of the maximal intracellular cAMP level induced by full the TAAR1 agonist phenethylamine and corrected for baseline cAMP accumulation. […] Experiments were run in duplicate in 7–9 independent experiments for ADR and were run in 3–5 independent experiments for TAAR1.

[3] = target: T3, human adrenergic receptor (ADR) β2 (Homo sapiens, UniProt P07550); assay: ADRβ2 activation, Ca2+ influx (Fluo-8) in overexpressing chem-1 cells; assay type: cell-based; conditions: for ADRβ2 Emax: % of maximal signal obtained by adrenaline, average (95% CI); for EC50: Ca2+ response, chem-1 cells, average (95% confidence interval), 7–9 experiments
T3 construct: host or cells: rat chem-1 cells
T3 sequence (P07550 whole entry): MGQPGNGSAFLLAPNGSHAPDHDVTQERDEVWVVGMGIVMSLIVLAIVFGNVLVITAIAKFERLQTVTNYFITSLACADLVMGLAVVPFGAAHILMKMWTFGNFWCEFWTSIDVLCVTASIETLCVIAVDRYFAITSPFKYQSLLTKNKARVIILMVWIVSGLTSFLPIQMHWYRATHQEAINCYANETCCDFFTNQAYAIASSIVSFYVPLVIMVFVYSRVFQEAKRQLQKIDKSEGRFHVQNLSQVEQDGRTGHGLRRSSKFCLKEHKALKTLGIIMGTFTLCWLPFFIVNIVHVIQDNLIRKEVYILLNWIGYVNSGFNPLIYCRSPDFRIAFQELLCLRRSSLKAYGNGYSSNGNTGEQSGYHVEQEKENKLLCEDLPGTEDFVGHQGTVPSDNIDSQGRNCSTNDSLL

[4] = target: T4, human adrenergic receptor (ADR) β1 (Homo sapiens, UniProt P08588); assay: ADRβ1 activation, Ca2+ influx (Fluo-8) in overexpressing chem-1 cells; assay type: cell-based; conditions: for ADRβ1 Emax: % of maximal signal obtained by adrenaline, average (95% CI); for Emax: Chem-1, read-out: ADRβ1 Emax; for potency at ADRβ1, times less potent than adrenaline: relative to the endogenous agonist adrenaline
T4 construct: host or cells: rat chem-1 cells
T4 sequence (P08588 whole entry): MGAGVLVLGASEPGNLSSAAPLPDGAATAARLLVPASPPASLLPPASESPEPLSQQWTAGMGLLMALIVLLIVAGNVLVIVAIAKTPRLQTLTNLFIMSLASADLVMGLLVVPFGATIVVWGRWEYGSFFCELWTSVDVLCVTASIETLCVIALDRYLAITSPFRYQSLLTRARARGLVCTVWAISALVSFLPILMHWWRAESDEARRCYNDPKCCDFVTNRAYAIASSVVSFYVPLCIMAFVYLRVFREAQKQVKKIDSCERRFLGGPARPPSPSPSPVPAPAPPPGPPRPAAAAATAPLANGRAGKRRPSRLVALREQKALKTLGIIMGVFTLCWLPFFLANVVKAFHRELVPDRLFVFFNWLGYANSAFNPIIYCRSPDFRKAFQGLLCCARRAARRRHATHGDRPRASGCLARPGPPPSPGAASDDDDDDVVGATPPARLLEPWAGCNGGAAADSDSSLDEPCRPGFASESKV
Description: as §1, §2

[5] = set-up: method as in earlier work; conditions: humans; ref 47 (Feng et al. 2012); cited from earlier work
[6] = set-up: method as in PMID 33227193, PMID 31984737; conditions: humans, n = 3, cited from earlier work

In the case of `CCC(C)CC(C)N` (stereo not drawn) [1,3-Dimethylamylamine, 1,3-dimethylamylamine], the EC50 [1] is reported as over 300 µM, the EC50 [2] is reported as over 300 µM and the “ADRα1B Emax” value [2] is reported as “-”. The “ADRβ2 Emax” value [3] was “-”, the EC50 [3] was over 300 µM and the EC50 [4] was over 300 µM. The “ADRβ1 Emax” value [4] was “-”.
For `CC(C)CC(C)N` (stereo not drawn), the EC50 [1] was over 300 µM, the EC50 [2] was over 300 µM and the “ADRα1B Emax” value [2] was “-”. The “ADRβ2 Emax” value [3] was “-”, the EC50 [3] was over 300 µM and the EC50 [4] was over 300 µM. The “ADRβ1 Emax” value [4] was “-”.
With `Oc1ccc(CC2NCCc3cc(O)c(O)cc32)cc1` (stereo not drawn) [Higenamine, higenamine] the EC50 [1] was over 300 µM, the EC50 [2] was over 300 µM and the “ADRα1B Emax” value [2] was “-”. For the same compound, the maximal plasma concentration [5] was 8.4 nM, the EC50 [3] was 0.47 µM and the Emax ([3]; Chem-1) was 31%. The “potency at ADRβ2, times less potent than adrenaline” value ([3]; relative to the full agonist adrenaline) was “seven”, the EC50 [4] was 0.034 µM and the Emax [4] was 105%. For the same compound, the “potency at ADRβ1, times less potent than adrenaline” value [4] was about 3 times.
With `CC(C)CCCC(C)N` (stereo not drawn) the EC50 [1] was over 300 µM, the EC50 [2] was over 300 µM and the “ADRα1B Emax” value [2] was “-”. For the same compound, the “ADRβ2 Emax” value [3] was “-”, the EC50 [3] was over 300 µM and the EC50 [4] was over 300 µM. The “ADRβ1 Emax” value [4] was “-”.
With `NCCc1ccccc1` [Phenethylamine, phenethylamine] the EC50 [1] was over 300 µM, the EC50 [2] was over 300 µM and the “ADRα1B Emax” value [2] was “-”. The “ADRβ2 Emax” value [3] was “-”, the EC50 [3] was over 300 µM and the EC50 [4] was over 300 µM. The “ADRβ1 Emax” value [4] was “-”.
With `CNC(C)C(O)c1ccc(O)cc1` (stereo not drawn) [Methylsynephrine] the EC50 [1] was over 300 µM, the EC50 [2] was over 300 µM and the “ADRα1B Emax” value [2] was “-”. For the same compound, the “ADRβ2 Emax” value [3] was “-”, the EC50 [3] was over 300 µM and the EC50 [4] was 25 µM. The Emax [4] was 75% and the “potency at ADRβ1, times less potent than adrenaline” value [4] was “approximately 2500 times”.
`NCC(O)c1ccc(O)cc1` (stereo not drawn) [p-Octopamine, p-octopamine] showed an EC50 [1] of over 300 µM, an EC50 [2] of 3.9 µM and an Emax [2] of 94%. For the same compound, the “ADRβ2 Emax” value [3] was “-” and the EC50 [3] was over 300 µM.
With `CN(C)CCc1ccc(O)cc1` [Hordenine, hordenine] the “ADRα2A Emax” value ([1]; % of maximal signal obtained by adrenaline, average (95% CI)) was 12%, the EC50 [1] was 690 µM and the “potency at ADRα2A, times lower compared to adrenaline” value [1] was over 12000 times. For the same compound, the EC50 [2] was 5.7 µM, the Emax [2] was 37% and the Human plasma level ([6]; 5.5 mg oral dose) was 15 nM. For the same compound, the Human plasma level ([6]; 100 mg oral dose) was 2.7 nM, the “ADRβ2 Emax” value [3] was “-” and the EC50 [3] was over 300 µM. For the same compound, the EC50 [4] was over 300 µM and the “ADRβ1 Emax” value [4] was “-”.
Compound `CNCC(O)c1ccccc1` (stereo not drawn) [Halostachine, halostachine] has an EC50 [1] of over 300 µM, an EC50 [2] of 1.1 µM and an Emax [2] of 77%. For the same compound, the “ADRβ2 Emax” value [3] was “-”, the EC50 [3] was over 300 µM and the EC50 [4] was over 300 µM. The “ADRβ1 Emax” value [4] was “-”.
For `CNCC(O)c1ccc(O)cc1` (stereo not drawn) [p-Synephrine, p-synephrine], the EC50 [1] was 100 µM, the Emax ([1]; Chem-1, % of maximal signal obtained by adrenaline, average (95% CI)) was 89% and the “potency at ADRα2A, times lower compared to adrenaline” value [1] was over 12000 times. The Emax [2] was 91%, the “ADRβ2 Emax” value [3] was “-” and the EC50 [3] was over 300 µM.
Compound `CN(C)CCc1ccccc1` [Dimethylphenethylamine, N,N-dimethylphenethylamine] has an EC50 [1] of over 300 µM, an EC50 [2] of 6.1 µM and an Emax [2] of 19%. For the same compound, the “ADRβ2 Emax” value [3] was “-”, the EC50 [3] was over 300 µM and the EC50 [4] was over 300 µM. For the same compound, the “ADRβ1 Emax” value [4] was “-”.
For `CC(CN)c1ccccc1` (stereo not drawn) [β-Methylphenethyl-amine, beta-methylphenethylamine], the EC50 [1] was over 300 µM, the EC50 [2] was over 300 µM and the “ADRα1B Emax” value [2] was “-”. For the same compound, the “ADRβ2 Emax” value [3] was “-”, the EC50 [3] was over 300 µM and the EC50 [4] was over 300 µM. The “ADRβ1 Emax” value [4] was “-”.
With `CC(C)NCC(O)c1ccc(O)cc1` (stereo not drawn) [Isopropyloctopamine, isopropyloctopamine] the EC50 [1] was over 300 µM, the EC50 [2] was over 300 µM and the “ADRα1B Emax” value [2] was “-”. The “ADRβ2 Emax” value [3] was “-” and the EC50 [3] was over 300 µM.
With `NCCc1ccc(O)cc1` [Tyramine, tyramine] the EC50 [1] was over 300 µM, the EC50 [2] was over 300 µM and the “ADRα1B Emax” value [2] was “-”. For the same compound, the “ADRβ2 Emax” value [3] was “-”.
With `CN(C)CCO` [Dimethylaminoethanol, dimethylaminoethanol] the EC50 [1] was over 300 µM, the EC50 [2] was over 300 µM and the “ADRα1B Emax” value [2] was “-”. For the same compound, the “ADRβ2 Emax” value [3] was “-”, the EC50 [3] was over 300 µM and the EC50 [4] was over 300 µM. The “ADRβ1 Emax” value [4] was “-”.
